Counter-ions that a name gives are not always drawn.
Tests used:
[1] = system: 18f-NLuc reporter virus; test: microbe, parasite or virus in culture; format: cell-based, Hepatitis A virus; settings: for activity at 10 µM: Hepatovirus A, Huh-7.5.1, 72 h, read-out: Normalized HAV production
[2] = system: Huh-7.5.1 cells; test: Cell viability in the chemical screen (Cell TiterGlo); settings: 10 µM compound, 72 h

| SMILES | activity at 10 µM [1] [%] | Viability Percent DMSO [2] [Percent DMSO] | Normalized HAV production [1] |
| --- | --- | --- | --- |
| Nc1nc2c(ncn2CCC(CO)CO)c(=O)[nH]1 [Penciclovir] | 111 | 96 |  |
| O=C(O)c1ccccc1C(=O)Nc1ccc(S(=O)(=O)Nc2nccs2)cc1 [Phthalylsulfathiazole] | 83 | 112 |  |
| CCOC(=O)c1ccc(OCCC2CCN(c3ccc(C)nn3)CC2)cc1 [Pirodavir] | 91 | 134 |  |
| Cc1nc(N(C)C(=O)Cc2ccc(-c3ccccn3)cc2)sc1S(N)(=O)=O [Pritelivir] | 78 | 127 |  |
| Cc1nnc(C(=O)NC(C)(C)c2nc(C(=O)NCc3ccc(F)cc3)c(O)c(=O)n2C)o1 [Raltegravir] | 124 | 132 |  |
| CCOCc1nc2c(N)nc3ccccc3c2n1CC(C)(C)O [Resiquimod] | 130 | 107 |  |
| Cc1nc(Nc2ccc(F)cc2)nc(N2CCc3ccccc3C2C)c1C (centres unmarked) [Revaprazan hydrochloride] | 87 | 115 |  |
| CO[C@H]1/C=C/O[C@@]2(C)Oc3c(C)c(O)c4c(O)c(c(/C=N/N5CCN(C)CC5)c(O)c4c3C2=O)NC(=O)/C(C)=C\C=C\[C@H](C)[C@H](O)[C@@H](C)[C@@H](O)[C@@H](C)[C@H](OC(C)=O)[C@@H]1C [Rifampicin] | 86 | 119 |  |
| Cc1cc(/C=C/C#N)cc(C)c1Nc1ccnc(Nc2ccc(C#N)cc2)n1 [Rilpivirine] | 71 | 132 |  |
| CC(N)C12CC3CC(CC(C3)C1)C2 (centres unmarked) [Rimantadine hydrochloride] | 113 | 98 |  |
| COc1ccc(C2CNC(=O)C2)cc1OC1CCCC1 (centres unmarked) [Rolipram] | 130 | 113 |  |
| O=C(Nc1ccccc1)c1ccccc1O [Salicylanilide] | 76 | 120 |  |
| Cc1cc(F)c(C(=O)Nc2cccc(-c3nncn3C(C)C)n2)cc1-n1cnc(C2CC2)c1 [Selonsertib] | 38 | 131 |  |
| CC(C)OC(=O)[C@H](C)N[P@](=O)(OC[C@H]1O[C@@H](n2ccc(=O)[nH]c2=O)[C@](C)(F)[C@@H]1O)Oc1ccccc1 [Sofosbuvir] | 38 | 130 |  |
| CN[C@@H]1[C@H](O)[C@H](NC)[C@H]2O[C@@]3(O)C(=O)C[C@@H](C)O[C@H]3O[C@@H]2[C@H]1O.Cl.Cl [Spectinomycin dihydrochloride] |  | 109 | 0.83 |
| Cc1cn([C@H]2C=C[C@@H](CO)O2)c(=O)[nH]c1=O [Stavudine] | 101 | 101 |  |
| COc1ncnc(NS(=O)(=O)c2ccc(N)cc2)c1OC [Sulfadoxine] | 69 | 118 |  |
| CCC[C@H](NC(=O)[C@@H]1[C@H]2CCC[C@H]2CN1C(=O)[C@@H](NC(=O)[C@@H](NC(=O)c1cnccn1)C1CCCCC1)C(C)(C)C)C(=O)C(=O)NC1CC1 [Telaprevir] | 73 | 119 |  |
| Cc1cn([C@@H]2C[C@@H](O)[C@H](CO)O2)c(=O)[nH]c1=O [Telbivudine] | 156 | 108 |  |
| C[C@H](Cn1cnc2c(N)ncnc21)OCP(=O)(O)O [Tenofovir] | 128 | 118 |  |
| CN(C)[C@@H]1C(O)=C(C(N)=O)C(=O)[C@@]2(O)C(O)=C3C(=O)c4c(O)cccc4[C@@](C)(O)[C@H]3C[C@@H]12 [Tetracycline] | 89 | 114 |  |
| CCS(=O)(=O)CCn1c([N+](=O)[O-])cnc1C [Tinidazole] | 78 | 108 |  |
